Measurements as given in patent US11912686B2 (Gilead Sciences, Inc., priority 2020, dated 2024).

molecular target: human LPAR1 (Homo sapiens (Human), UniProt Q92633); test: LPAR1 intracellular calcium mobilization assay (antagonist mode, FLIPR); format: cell-based; settings: CHO-K1 EDG2 cells expressing human LPAR1, LPA 18:2 at EC80 (100 nM), test compound 0.5 nM to 10 μM
Sequence (Q92633 whole entry): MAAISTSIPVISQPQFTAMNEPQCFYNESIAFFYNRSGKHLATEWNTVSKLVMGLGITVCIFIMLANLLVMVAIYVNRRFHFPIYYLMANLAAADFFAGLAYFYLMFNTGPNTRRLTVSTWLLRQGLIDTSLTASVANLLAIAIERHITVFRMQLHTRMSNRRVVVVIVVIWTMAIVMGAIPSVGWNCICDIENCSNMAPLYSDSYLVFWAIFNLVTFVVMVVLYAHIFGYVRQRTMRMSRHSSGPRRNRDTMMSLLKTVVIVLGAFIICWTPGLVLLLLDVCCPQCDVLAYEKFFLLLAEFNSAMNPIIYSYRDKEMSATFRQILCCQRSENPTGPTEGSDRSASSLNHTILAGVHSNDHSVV

Question: `C[C@@H](OC(=O)Nc1c(-c2ccc(NC(=O)c3cncc(F)c3Cl)cn2)nnn1C)c1cc(F)cnc1F` [Compound 263, (R)-1-(2,5-difluoropyridin-3-yl)ethyl (4-(5-(4-chloro-5-fluoronicotinamido)pyridin-2-yl)-1-methyl-1H-1,2,3-triazol-5-yl)carbamate] was tested. Which EC50 did it give?
Answer: Its EC50 is 691 nM.

Question: For `C[C@@H](OC(=O)Nc1c(-c2ccc(NC(=O)C3CC4(CC(F)C4)C3)cn2)nnn1C)c1cccnc1Cl` (stereo partly drawn) [Compound 81, (R)-1-(2-chloropyridin-3-yl)ethyl (4-(5-(6-fluorospiro[3.3]heptane-2-carboxamido)pyridin-2-yl)-1-methyl-1H-1,2,3-triazol-5-yl)carbamate], which EC50 is on record?
Answer: The EC50 was 22.8 nM.

Question: With `C[C@@H](OC(=O)Nc1c(-c2ccc(NC(=O)[C@@H]3C[C@H]3C#N)cn2)nnn1C)c1cccnc1Cl` [Compound 51, (R)-1-(2-chloropyridin-3-yl)ethyl (4-(5-((1R,2R)-2-cyanocyclopropane-1-carboxamido)pyridin-2-yl)-1-methyl-1H-1,2,3-triazol-5-yl)carbamate] as the molecule, how does the EC50 read?
Answer: Its EC50 is 88.7 nM.

Question: For `CNC(=O)Nc1ccc(-c2nnn(C)c2NC(=O)O[C@H](C)c2ccccc2Cl)cn1` [Compound 3], which EC50 is on record?
Answer: Its EC50 is 10000 nM.

Question: For `C[C@@H](OC(=O)Nc1c(-c2ccc(NC(=O)C3(C#N)CN(CC(F)(F)F)C3)cn2)nnn1C)c1cc(F)cnc1F` [Compound 305, (R)-1-(2,5-difluoropyridin-3-yl)ethyl (4-(5-(3-cyano-1-(2,2,2-trifluoroethyl)azetidine-3-carboxamido)pyridin-2-yl)-1-methyl-1H-1,2,3-triazol-5-yl)carbamate], which EC50 is on record?
Answer: Its EC50 is 1000 nM.

Question: For `C[C@@H](OC(=O)Nc1c(-c2ccc(NC(=O)[C@@H]3CC3(F)F)cn2)nnn1C)c1cccnc1Cl` [Compound 65, (R)-1-(2-chloropyridin-3-yl)ethyl (4-(5-((S)-2,2-difluorocyclopropane-1-carboxamido)pyridin-2-yl)-1-methyl-1H-1,2,3-triazol-5-yl)carbamate], which EC50 is on record?
Answer: The EC50 was 81.9 nM.

Question: With `CC(=O)Nc1ccc(-c2nnn(C)c2NC(=O)OC(C)c2ccc(F)nc2Cl)nc1` (centres unmarked) [Compound 182, 1-(2-chloro-6-fluoropyridin-3-yl)ethyl (4-(5-acetamidopyridin-2-yl)-1-methyl-1H-1,2,3-triazol-5-yl)carbamate] as the molecule, how does the EC50 read?
Answer: The EC50 was 2050 nM.

Question: With `C[C@@H](OC(=O)Nc1c(-c2ccc(NC(=O)C(F)F)cn2)nnn1C)c1cccnc1Cl` [Compound 36, (R)-1-(2-chloropyridin-3-yl)ethyl (4-(5-(2,2-difluoroacetamido)pyridin-2-yl)-1-methyl-1H-1,2,3-triazol-5-yl)carbamate] as the molecule, how does the EC50 read?
Answer: The EC50 was 112 nM.

Question: With `C[C@@H](OC(=O)Nc1c(-c2ccc(NC(=O)C3(c4cccnc4)CC3)cn2)nnn1C)c1cccnc1Cl` [Compound 94, (R)-1-(2-chloropyridin-3-yl)ethyl (1-methyl-4-(5-(1-(pyridin-3-yl)cyclopropane-1-carboxamido)pyridin-2-yl)-1H-1,2,3-triazol-5-yl)carbamate] as the molecule, how does the EC50 read?
Answer: Its EC50 is 4820 nM.

Question: For `C[C@@H](OC(=O)Nc1c(-c2cc(F)c(NC(=O)C3(C#N)CC3)cn2)nnn1C)c1cccnc1Cl` [Compound 183, (R)-1-(2-chloropyridin-3-yl)ethyl (4-(5-(1-cyanocyclopropane-1-carboxamido)-4-fluoropyridin-2-yl)-1-methyl-1H-1,2,3-triazol-5-yl)carbamate], which EC50 is on record?
Answer: Its EC50 is 1060 nM.

Question: For `C[C@@H](OC(=O)Nc1c(-c2ccc(NC(=O)C3CC3C#N)cn2)nnn1C)c1cccnc1Cl` (stereo partly drawn) [Compound 130, (R)-1-(2-chloropyridin-3-yl)ethyl (4-(5-(2-cyanocyclopropane-1-carboxamido)pyridin-2-yl)-1-methyl-1H-1,2,3-triazol-5-yl)carbamate], which EC50 is on record?
Answer: Its EC50 is 271 nM.

Question: Which EC50 does the source give for `Cc1cnoc1C(=O)Nc1ccc(-c2nnn(C)c2NC(=O)O[C@H](C)c2cc(F)cnc2F)nc1` [Compound 227, (R)-1-(2,5-difluoropyridin-3-yl)ethyl (1-methyl-4-(5-(4-methylisoxazole-5-carboxamido)pyridin-2-yl)-1H-1,2,3-triazol-5-yl)carbamate] here?
Answer: Its EC50 is 206 nM.

Question: With `C[C@@H](OC(=O)Nc1c(-c2ccc(NC(=O)C3(C#N)CC3)cn2)nnn1C)c1cccnc1Cl` [Compound 67, (R)-1-(2-chloropyridin-3-yl)ethyl (4-(5-(1-cyanocyclopropane-1-carboxamido)pyridin-2-yl)-1-methyl-1H-1,2,3-triazol-5-yl)carbamate] as the molecule, how does the EC50 read?
Answer: Its EC50 is 30.8 nM.

Question: How did the EC50 turn out when `C[C@@H](OC(=O)Nc1c(-c2ccc(NC(=O)C3(C#N)CC(F)(F)C3)cn2)nnn1C)c1cccnc1Cl` [Compound 186, (R)-1-(2-chloropyridin-3-yl)ethyl (4-(5-(1-cyano-3,3-difluorocyclobutane-1-carboxamido)pyridin-2-yl)-1-methyl-1H-1,2,3-triazol-5-yl)carbamate] was run?
Answer: Its EC50 is 100 nM.

Question: With `C[C@@H]1CCN(C(=O)Nc2ccc(-c3nnn(C)c3NC(=O)O[C@H](C)c3cccnc3Cl)nc2)C1` [Compound 190, (R)-1-(2-chloropyridin-3-yl)ethyl (1-methyl-4-(5-((R)-3-methylpyrrolidine-1-carboxamido)pyridin-2-yl)-1H-1,2,3-triazol-5-yl)carbamate] as the molecule, how does the EC50 read?
Answer: Its EC50 is 359 nM.

Question: How did the EC50 turn out when `C[C@@H](OC(=O)Nc1c(-c2ccc(NC(=O)N3CC(C#N)C3)cn2)nnn1C)c1cccnc1Cl` [Compound 191, (R)-1-(2-chloropyridin-3-yl)ethyl (4-(5-(3-cyanoazetidine-1-carboxamido)pyridin-2-yl)-1-methyl-1H-1,2,3-triazol-5-yl)carbamate] was run?
Answer: Its EC50 is 620 nM.

Question: Which EC50 does the source give for `C[C@@H](OC(=O)Nc1c(-c2ccc(NC(=O)C3CN(CC(F)(F)F)C3)cn2)nnn1C)c1cccnc1Cl` [Compound 309, (R)-1-(2-chloropyridin-3-yl)ethyl (1-methyl-4-(5-(1-(2,2,2-trifluoroethyl)azetidine-3-carboxamido)pyridin-2-yl)-1H-1,2,3-triazol-5-yl)carbamate] here?
Answer: The EC50 was 133 nM.

Question: How did the EC50 turn out when `C[C@@H](OC(=O)Nc1c(-c2ccc(NC(=O)c3cnc(C(F)(F)F)nc3)c(F)n2)nnn1C)c1cccnc1Cl` [Compound 318, (R)-1-(2-chloropyridin-3-yl)ethyl (4-(6-fluoro-5-(2-(trifluoromethyl)pyrimidine-5-carboxamido)pyridin-2-yl)-1-methyl-1H-1,2,3-triazol-5-yl)carbamate] was run?
Answer: Its EC50 is 9.5 nM.

Question: How did the EC50 turn out when `C[C@@H](OC(=O)Nc1c(-c2cnc(NC(=O)c3cnc(C(F)F)nc3)cn2)nnn1C)c1cccnc1Cl` [Compound 324, (R)-1-(2-chloropyridin-3-yl)ethyl (4-(5-(2-(difluoromethyl)pyrimidine-5-carboxamido)pyrazin-2-yl)-1-methyl-1H-1,2,3-triazol-5-yl)carbamate] was run?
Answer: Its EC50 is 53.7 nM.

Question: With `C[C@@H](OC(=O)Nc1c(-c2ccc(NC(=O)c3cnc(C(F)(F)F)nc3)cn2)nnn1C)c1cc(F)cnc1F` [Compound 251, (R)-1-(2,5-difluoropyridin-3-yl)ethyl (1-methyl-4-(5-(2-(trifluoromethyl)pyrimidine-5-carboxamido)pyridin-2-yl)-1H-1,2,3-triazol-5-yl)carbamate] as the molecule, how does the EC50 read?
Answer: Its EC50 is 38.5 nM.

Question: `C[C@@H](OC(=O)Nc1c(-c2ccc(NC(=O)[C@H]3C[C@@H]3C#N)cn2)nnn1C)c1cccnc1Cl` [Compound 50, (R)-1-(2-chloropyridin-3-yl)ethyl (4-(5-((1S,2S)-2-cyanocyclopropane-1-carboxamido)pyridin-2-yl)-1-methyl-1H-1,2,3-triazol-5-yl)carbamate] was tested. Which EC50 did it give?
Answer: Its EC50 is 1760 nM.

Question: With `C[C@@H](OC(=O)Nc1c(-c2ccc(NC(=O)[C@H]3C[C@]4(CC4(F)F)C3)cn2)nnn1C)c1cccnc1Cl` [Compound 86, (R)-1-(2-chloropyridin-3-yl)ethyl (4-(5-((3S,5s)-1,1-difluorospiro[2.3]hexane-5-carboxamido)pyridin-2-yl)-1-methyl-1H-1,2,3-triazol-5-yl)carbamate] as the molecule, how does the EC50 read?
Answer: Its EC50 is 16.6 nM.

Question: How did the EC50 turn out when `C[C@@H](OC(=O)Nc1c(-c2ccc(NC(=O)c3ccc(C(F)(F)F)nc3)c(F)n2)nnn1C)c1cccnc1Cl` [Compound 315, (R)-1-(2-chloropyridin-3-yl)ethyl (4-(6-fluoro-5-(6-(trifluoromethyl)nicotinamido)pyridin-2-yl)-1-methyl-1H-1,2,3-triazol-5-yl)carbamate] was run?
Answer: Its EC50 is 12.7 nM.

Question: `C[C@@H](OC(=O)Nc1c(-c2ccc(NC(=O)C3CC(C)(C)C3)cn2)nnn1C)c1cccnc1Cl` [Compound 84, (R)-1-(2-chloropyridin-3-yl)ethyl (4-(5-(3,3-dimethylcyclobutane-l-carboxamido)pyridin-2-yl)-1-methyl-1H-1,2,3-triazol-5-yl)carbamate] was tested. Which EC50 did it give?
Answer: Its EC50 is 14.5 nM.

Question: For `Cc1noc2cc(C(=O)Nc3ccc(-c4nnn(C)c4NC(=O)O[C@H](C)c4cc(F)cnc4F)nc3)ccc12` [Compound 279, (R)-1-(2,5-difluoropyridin-3-yl)ethyl (1-methyl-4-(5-(3-methylbenzo[d]isoxazole-6-carboxamido)pyridin-2-yl)-1H-1,2,3-triazol-5-yl)carbamate], which EC50 is on record?
Answer: The EC50 was 97.4 nM.

Question: `C[C@@H](OC(=O)Nc1c(-c2ccc(NC(=O)C3C4CCOC43)cn2)nnn1C)c1cccnc1Cl` (stereo partly drawn) [Compound 159, (R)-1-(2-chloropyridin-3-yl)ethyl (4-(5-(2-oxabicyclo[3.1.0]hexane-6-carboxamido)pyridin-2-yl)-1-methyl-1H-1,2,3-triazol-5-yl)carbamate] was tested. Which EC50 did it give?
Answer: Its EC50 is 394 nM.

Question: Which EC50 does the source give for `C[C@@H](OC(=O)Nc1c(-c2ccc(NC(=O)[C@]3(C#N)C[C@H]3F)cn2)nnn1C)c1cc(F)cnc1F` [Compound 269, (R)-1-(2,5-difluoropyridin-3-yl)ethyl (4-(5-((1R,2R)-1-cyano-2-fluorocyclopropane-1-carboxamido)pyridin-2-yl)-1-methyl-1H-1,2,3-triazol-5-yl)carbamate] here?
Answer: Its EC50 is 127 nM.

Question: `C[C@@H](OC(=O)Nc1c(-c2ncc(NC(=O)[C@@]3(C#N)C[C@@H]3C(F)F)cn2)nnn1C)c1cc(F)cnc1Cl` [Compound 287, (R)-1-(2-chloro-5-fluoropyridin-3-yl)ethyl (4-(5-((1S,2S)-1-cyano-2-(difluoromethyl)cyclopropane-1-carboxamido)pyrimidin-2-yl)-1-methyl-1H-1,2,3-triazol-5-yl)carbamate] was tested. Which EC50 did it give?
Answer: Its EC50 is 1430 nM.

Question: How did the EC50 turn out when `C[C@@H](OC(=O)Nc1c(-c2ccc(NC(=O)C3(C(F)F)CNC3)cn2)nnn1C)c1cc(F)cnc1F` [Compound 298, (R)-1-(2,5-difluoropyridin-3-yl)ethyl (4-(5-(3-(difluoromethyl)azetidine-3-carboxamido)pyridin-2-yl)-1-methyl-1H-1,2,3-triazol-5-yl)carbamate] was run?
Answer: The EC50 was 1250 nM.
